Source: patent US11850273B2, “Chemical reprogramming of human glial cells into neurons for brain and spinal cord repair” (The Penn State Research Foundation, priority 2014, dated 2023)
Entries after “also recorded” stand apart in the source; their conditions may differ.

Assays:
human astrocytes = assay: Withdrawal of each individual compound from the 9 small molecule pool; type: cell-based; conditions: 14 days post initial treatment; for effect of removal from the 9 small molecule pool on number of converted neurons / reprogramming efficiency: SAG and Purmo removed together
Text: This Example describes analysis of functional roles of each individual compound during chemical reprogramming. To dissect out the contribution of each single molecule toward reprogramming, we performed a series of experiments by withdrawing each individual compound from our cocktail pool (FIG. 6). […] FIG. 6K illustrates the summarized data of drug withdrawing experiments. While it is not a surprise that Tzv had no effect since it mainly acts as a cell survival factor, it was unexpected to find that removing TTNPB had no effect. […] On the other hand, the inhibition of Notch signaling, GSK-3β, and BMP/TGFβ signaling pathways appeared to be important for reprogramming astrocytes into neurons. […] Reprogramming human astrocytes into neurons. The astrocytes were cultured on poly-D-lysine (Sigma) coated coverslips (12 mm) at a density of 50,000 cells per coverslip in 24-well plates (BD Biosciences). The cells were cultured in human astrocyte medium until 90% confluence. At day 0 before reprogramming, half of the culture medium was replaced by N2 medium consisting of DMEM/F12 (Gibco), penicillin/streptomycin (Gibco) and N2 supplements (Gibco). The following day (Day 1), the culture medium was completely replaced by N2 medium supplemented with small molecules, or with 1% DMSO in control group. […] To promote synaptic maturation of converted neurons, brain-derived neurotrophic factor (BDNF, 20 ng/Ml, Invitrogen), Insulin-like growth factor 1 (IGF-1, 10 ng/ml, Invitrogen) and neurotrophin 3 (NT-3, 10 ng/ml, Invitrogen) were added in neuronal differentiation medium at day 9 and were refreshed every four days until day 30 (Song et al., 2002).

[1] = cited from earlier work
[2] = system: human astrocyte-converted neurons; assay: Patch clamp whole-cell recordings of human astrocyte-converted neurons
gamma secretase = conditions: read-out: IC50 γ-secretase; cited from earlier work
[3] = system: Aβ40 in human neuroblastoma cells; conditions: cited from earlier work
[4] = system: Aβ42 in human neuroblastoma cells; conditions: cited from earlier work
[5] = system: human cortical astrocytes (HA1800, ScienCell); type: cell-based; conditions: VPA in reprogramming medium longer than 2 days
[6] = system: Notch cleavage and Notch-mediated intracellular signaling; conditions: cited from earlier work
[7] = system: BACE1, BACE2, α-secretase, the proteasome or GSK3β; conditions: cited from earlier work
TGFβR-I = TGFβR-I (Homo sapiens, UniProt P36897); conditions: cited from earlier work
Chain of TGFβR-I (P36897 34-503): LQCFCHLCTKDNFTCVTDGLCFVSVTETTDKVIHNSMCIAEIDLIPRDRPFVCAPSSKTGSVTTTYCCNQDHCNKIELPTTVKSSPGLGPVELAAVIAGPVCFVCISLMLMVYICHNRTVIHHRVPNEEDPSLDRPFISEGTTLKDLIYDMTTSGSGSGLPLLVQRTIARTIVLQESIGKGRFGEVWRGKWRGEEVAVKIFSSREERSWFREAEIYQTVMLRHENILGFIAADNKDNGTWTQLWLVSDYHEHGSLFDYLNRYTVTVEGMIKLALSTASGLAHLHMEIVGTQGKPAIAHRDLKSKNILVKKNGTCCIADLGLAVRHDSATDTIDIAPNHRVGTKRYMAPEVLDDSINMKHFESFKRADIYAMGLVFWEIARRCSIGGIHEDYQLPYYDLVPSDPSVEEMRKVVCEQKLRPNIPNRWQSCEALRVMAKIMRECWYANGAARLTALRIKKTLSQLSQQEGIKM

[8] = system: Aβ40 and Aβ42 in SH-SY5Y neuroblastoma cells; conditions: cited from earlier work
GSK-3β = GSK-3β (Homo sapiens, UniProt P49841); conditions: cited from earlier work
Chain of GSK-3β (P49841 whole entry, species assumed): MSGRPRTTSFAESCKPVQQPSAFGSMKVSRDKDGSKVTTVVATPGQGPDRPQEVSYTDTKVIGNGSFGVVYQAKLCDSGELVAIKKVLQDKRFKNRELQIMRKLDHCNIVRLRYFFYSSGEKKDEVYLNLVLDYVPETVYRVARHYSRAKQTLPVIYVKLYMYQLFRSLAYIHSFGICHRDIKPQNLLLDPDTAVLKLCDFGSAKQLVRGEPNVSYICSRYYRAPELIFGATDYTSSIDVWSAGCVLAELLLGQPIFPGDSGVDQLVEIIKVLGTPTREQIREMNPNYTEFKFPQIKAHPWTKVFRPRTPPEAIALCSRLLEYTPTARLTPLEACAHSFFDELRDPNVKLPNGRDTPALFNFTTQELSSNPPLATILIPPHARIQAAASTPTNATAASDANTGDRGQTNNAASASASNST

[9] = system: mouse embryonic stem cells; conditions: At 400 Nm; cited from earlier work
Notch = conditions: cited from earlier work

C/C(=C\c1ccc(C(=O)O)cc1)c1ccc2c(c1)C(C)(C)CCC2(C)C [TTNPB]
effect of individual removal from the 9 small molecule pool on number of converted neurons / reprogramming efficiency (human astrocytes): did not affect; also recorded: did not have a significant effect

N#Cc1ccc2[nH]c(O)c(-c3ccc(CN4CCOCC4)cn3)c2c1 [AZD1080]
oral activity and brain permeability [1]: selective, orally active, brain permeable GSK3 inhibitor

DNQX
effect on the majority of synaptic events at −70 mV [2]: blocked

CC(C)(C(=O)NCC(F)(F)C(F)(F)F)C(=O)N[C@@H]1C(=O)Nc2ccccc2-c2ccccc21 [RO4929097]
IC50 (gamma secretase): 4 nM

CC(C)C[C@H](NC(=O)[C@H](Cc1ccccc1)C[C@@H](O)[C@H](Cc1ccccc1)NC(=O)OC(C)(C)C)C(=O)N[C@@H](Cc1ccccc1)C(N)=O [L-685, 458]
IC50 (gamma secretase): 17 nM | IC50 [3]: 48 nM | IC50 [4]: 67 nM

CCCC(CCC)C(=O)O [VPA, valproic acid]
cell death [5]: increased cell death | effect of individual removal from the 9 small molecule pool on number of converted neurons / reprogramming efficiency (human astrocytes): slightly reduced

COc1oc(=O)c2cc(N)ccc2c1Cl [LK 6]
effect on Notch cleavage and Notch-mediated intracellular signaling [6]: no effect | activity on BACE1, BACE2, α-secretase, the proteasome or GSK3β [7]: signaling. Displays no activity on BACE1, BACE2,

O=C(NCc1ccccc1)c1csc(Nc2ccncn2)n1 [Tzv, thiazovivin]
effect of individual removal from the 9 small molecule pool on number of converted neurons / reprogramming efficiency (human astrocytes): did not affect; also recorded: did not have a significant effect

CNC1CCC(N(Cc2cccc(-c3ccncc3)c2)C(=O)c2sc3ccccc3c2Cl)CC1 (stereo not shown) [SAG]
effect of removal from the 9 small molecule pool on number of converted neurons / reprogramming efficiency (human astrocytes): slightly reduced

LY364947
selectivity over TGFβR-II (TGFβR-I): shows 7-fold selectivity over TGFβR-II.

O=S(=O)(NC1CCC(c2cc(F)ccc2F)(S(=O)(=O)c2ccc(Cl)cc2)CC1)C(F)(F)F (stereo not shown) [MRK 560]
IC50 [8]: 0.65 nM | oral bioavailability [1]: Orally bioavailable.

Nc1cccc(-c2cc3c(Oc4cccc(O)c4)ncnc3[nH]2)c1 [TWS119]
IC50 (GSK-3β): 30 nM | neurogenesis in mouse embryonic stem cells [9]: TWS119 induces neurogenesis in mouse embryonic

NC(=O)c1ccc(-c2nc(-c3ccc4c(c3)OCO4)c(-c3ccccn3)[nH]2)cc1 [SB431542, -[4-(1,3-benzodioxol-5-yl)-5-(2-pyridinyl)-1H-imidazol-2-yl]benzamide]
effect of individual removal from the 9 small molecule pool on number of converted neurons / reprogramming efficiency (human astrocytes): significantly reduced

c1ccc2c(Oc3nc(Nc4ccc(N5CCOCC5)cc4)c4ncn(C5CCCCC5)c4n3)cccc2c1 [Purmo, purmorphamine]
effect of removal from the 9 small molecule pool on number of converted neurons / reprogramming efficiency (human astrocytes): slightly reduced

C[C@H](NC(=O)Cc1cc(F)cc(F)c1)C(=O)N[C@H](C(=O)OC(C)(C)C)c1ccccc1 [DAPT]
effect of individual removal from the 9 small molecule pool on number of converted neurons / reprogramming efficiency (human astrocytes): significantly reduced; also recorded: most significant reduction

C[C@H](NC(=O)CCC(F)(F)F)C(=O)N[C@@H]1C(=O)N(CCO)c2ncccc2-c2ccccc21 [LY3039478]
IC50 (Notch): 0.41 nM
